Laboratory results published in patent US20250361268A1, “NOVEL ANTI-INFLAMMATORY PEPTIDE AND USE THEREOF” (NOVACELL TECHNOLOGY INC., priority 2022, published 2025).
Peptide text beside a SMILES is read from it.

Legend:
FPR2 = biological target: T1, FPR2 (Homo sapiens, UniProt P25090); assay: Change in calcium activity by peptide (Fura-2) in RBL cells overexpressing FPR2; format: cell-based; details: calcium activity (Fura-2), graded per Table 3, read-out: EC50 for [Ca^2+] FPR2
T1 construct: expressed in transfected cells; host or cells: RBL cells (RBL-FPR2)
T1 sequence (P25090 1-351): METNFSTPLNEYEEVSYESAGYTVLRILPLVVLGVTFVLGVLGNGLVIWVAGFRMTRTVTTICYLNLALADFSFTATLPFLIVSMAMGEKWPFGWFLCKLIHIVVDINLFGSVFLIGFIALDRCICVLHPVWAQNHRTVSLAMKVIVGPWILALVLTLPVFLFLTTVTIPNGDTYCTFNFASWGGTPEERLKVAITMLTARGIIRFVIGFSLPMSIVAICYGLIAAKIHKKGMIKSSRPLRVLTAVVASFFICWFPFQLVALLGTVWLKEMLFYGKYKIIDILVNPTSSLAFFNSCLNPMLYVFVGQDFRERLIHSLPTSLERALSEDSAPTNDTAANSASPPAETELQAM
Outline: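 Rat basophilic leukemia cells overexpressing FPR2 loaded with Fura-2 (37 °C 1 h, then RT 30 min dark); peptides (0.5 mM stocks in water or 50% DMSO) diluted in HBSS + 20 mM HEPES and added on a plate reader, intracellular Ca2+ change recorded.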

FPR1 = biological target: T2, FPR1 (Homo sapiens, UniProt P21462); assay: Change in calcium activity by peptide, FPR1 activation effect; format: cell-based; details: calcium activity (Fura-2), graded per Table 3, read-out: EC50 for [Ca^2+] FPR1
T2 sequence (P21462 1-350): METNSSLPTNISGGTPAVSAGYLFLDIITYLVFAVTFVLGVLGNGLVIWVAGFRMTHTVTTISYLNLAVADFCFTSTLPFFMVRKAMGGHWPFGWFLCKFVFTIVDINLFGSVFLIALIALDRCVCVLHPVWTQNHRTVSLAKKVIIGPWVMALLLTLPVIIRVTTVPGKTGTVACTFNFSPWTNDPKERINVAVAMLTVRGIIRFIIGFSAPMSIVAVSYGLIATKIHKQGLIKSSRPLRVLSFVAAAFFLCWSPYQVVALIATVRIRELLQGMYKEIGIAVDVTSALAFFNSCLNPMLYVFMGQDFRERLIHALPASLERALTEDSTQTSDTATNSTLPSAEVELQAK
Outline: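 Cells plated at 3×10^5 per well the day before were loaded with Fura-2 for 1 h at 37 °C, then kept 30 min in the dark at room temperature. Peptide-evoked calcium changes were recorded on a FlexStation 3.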

| EC50 (FPR2) [nM] | EC50 (FPR1) [nM] | Structure (SMILES) |
| --- | --- | --- |
| < 10 | > 10000 | CSCC[C@@H](NC(=O)[C@@H]1CCCN1C(=O)[C@H](CCCCN)NC(=O)[C@H](Cc1ccc(O)cc1)NC(=O)[C@H](CCCNC(=N)N)NC(=O)[C@H](Cc1c[nH]c2ccccc12)NC(=O)[C@@H](N)CCCNC(=N)N)C(N)=O [Peptide 74] (HELM PEPTIDE1{R.W.R.Y.K.P.[dM].[am]}$$$$V2.0) |
| < 10 | 1000 to 10000 | CCCC(=O)N[C@@H](CCCNC(=N)N)C(=O)N[C@@H](Cc1c[nH]c2ccccc12)C(=O)N[C@@H](CCCNC(=N)N)C(=O)N[C@@H](Cc1ccc(O)cc1)C(=O)N[C@@H](CCCCN)C(=O)N1CCC[C@H]1C(=O)N[C@H](CCSC)C(N)=O [Peptide 75] (HELM PEPTIDE1{[CCCC(=O)[*:2]].R.W.R.Y.K.P.[dM].[am]}$$$$V2.0) |
| < 10 | 1000 to 10000 | CSCC[C@@H](NC(=O)[C@@H]1CCCN1C(=O)[C@H](CCCCN)NC(=O)[C@H](Cc1ccc(O)cc1)NC(=O)[C@H](CCCNC(=N)N)NC(=O)[C@H](Cc1c[nH]c2ccccc12)NC(C)=O)C(N)=O [Peptide 76] (HELM PEPTIDE1{[ac].W.R.Y.K.P.[dM].[am]}$$$$V2.0) |
| 11 to 100 | > 10000 | CSCC[C@@H](NC(=O)[C@H](Cc1ccc(O)cc1)NC(=O)[C@H](Cc1c[nH]c2ccccc12)NC(=O)[C@H](Cc1ccc(O)cc1)NC(=O)[C@H](CCCNC(=N)N)NC(=O)[C@H](Cc1c[nH]c2ccccc12)NC(=O)[C@@H](N)CCCNC(=N)N)C(N)=O [Peptide 77] (HELM PEPTIDE1{R.W.R.Y.W.Y.[dM].[am]}$$$$V2.0) |
| < 10 | > 10000 | CSCC[C@@H](NC(=O)[C@H](Cc1ccc(O)cc1)NC(=O)[C@H](Cc1c[nH]c2ccccc12)NC(=O)[C@H](Cc1ccc(O)cc1)NC(=O)[C@H](CCCNC(=N)N)NC(=O)[C@H](Cc1c[nH]c2ccccc12)NC(=O)[C@H](CCCNC(=N)N)NC(C)=O)C(N)=O [Peptide 78] (HELM PEPTIDE1{[ac].R.W.R.Y.W.Y.[dM].[am]}$$$$V2.0) |
| 11 to 100 | > 10000 | CSCC[C@@H](NC(=O)[C@H](Cc1ccc(O)cc1)NC(=O)[C@H](Cc1c[nH]c2ccccc12)NC(=O)[C@H](Cc1ccc(O)cc1)NC(=O)[C@H](CCCNC(=N)N)NC(=O)[C@@H](N)Cc1c[nH]c2ccccc12)C(N)=O [Peptide 79] (HELM PEPTIDE1{W.R.Y.W.Y.[dM].[am]}$$$$V2.0) |
| < 10 | > 10000 | CSCC[C@@H](NC(=O)[C@H](Cc1ccc(O)cc1)NC(=O)[C@H](Cc1c[nH]c2ccccc12)NC(=O)[C@H](Cc1ccc(O)cc1)NC(=O)[C@H](CCCCN)NC(=O)[C@H](Cc1c[nH]c2ccccc12)NC(=O)[C@H](CCCCN)NC(C)=O)C(N)=O [Peptide 80] (HELM PEPTIDE1{[ac].K.W.K.Y.W.Y.[dM].[am]}$$$$V2.0) |
| < 10 | > 10000 | CCCC(=O)N[C@@H](CCCNC(=N)N)C(=O)N[C@@H](CCSC)C(=O)N[C@@H](CCCNC(=N)N)C(=O)N[C@@H](Cc1ccc(O)cc1)C(=O)N[C@@H](Cc1c[nH]c2ccccc12)C(=O)N[C@@H](Cc1ccc(O)cc1)C(=O)N[C@H](CCSC)C(N)=O [Peptide 83] (HELM PEPTIDE1{[CCCC(=O)[*:2]].R.M.R.Y.W.Y.[dM].[am]}$$$$V2.0) |
| < 10 | > 10000 | CSCC[C@H](N)C(=O)N[C@@H](CCCNC(=N)N)C(=O)N[C@@H](Cc1ccc(O)cc1)C(=O)N[C@@H](Cc1c[nH]c2ccccc12)C(=O)N[C@@H](Cc1ccc(O)cc1)C(=O)N[C@H](CCSC)C(N)=O [Peptide 85] (HELM PEPTIDE1{M.R.Y.W.Y.[dM].[am]}$$$$V2.0) |
| < 10 | > 10000 | CSCC[C@H](NC(C)=O)C(=O)N[C@@H](CCCNC(=N)N)C(=O)N[C@@H](Cc1ccc(O)cc1)C(=O)N[C@@H](Cc1c[nH]c2ccccc12)C(=O)N[C@@H](Cc1ccc(O)cc1)C(=O)N[C@H](CCSC)C(N)=O [Peptide 86] (HELM PEPTIDE1{[ac].M.R.Y.W.Y.[dM].[am]}$$$$V2.0) |
| < 10 | > 10000 | CCCC(=O)N[C@@H](CCSC)C(=O)N[C@@H](CCCNC(=N)N)C(=O)N[C@@H](Cc1ccc(O)cc1)C(=O)N[C@@H](Cc1c[nH]c2ccccc12)C(=O)N[C@@H](Cc1ccc(O)cc1)C(=O)N[C@H](CCSC)C(N)=O [Peptide 87] (HELM PEPTIDE1{[CCCC(=O)[*:2]].M.R.Y.W.Y.[dM].[am]}$$$$V2.0) |
| 11 to 100 | > 10000 | CCCCCCCC(=O)N[C@@H](CCSC)C(=O)N[C@@H](CCCNC(=N)N)C(=O)N[C@@H](Cc1ccc(O)cc1)C(=O)N[C@@H](Cc1c[nH]c2ccccc12)C(=O)N[C@@H](Cc1ccc(O)cc1)C(=O)N[C@H](CCSC)C(N)=O [Peptide 88] (HELM PEPTIDE1{[CCCCCCCC(=O)[*:2]].M.R.Y.W.Y.[dM].[am]}$$$$V2.0) |
| < 10 | > 10000 | CSCC[C@H](N)C(=O)N[C@@H](CCCCN)C(=O)N[C@@H](Cc1ccc(O)cc1)C(=O)N[C@@H](Cc1c[nH]c2ccccc12)C(=O)N[C@@H](Cc1ccc(O)cc1)C(=O)N[C@H](CCSC)C(N)=O [Peptide 89] (HELM PEPTIDE1{M.K.Y.W.Y.[dM].[am]}$$$$V2.0) |
| 11 to 100 | > 10000 | CSCC[C@H](NC(C)=O)C(=O)N[C@@H](CCCCN)C(=O)N[C@@H](Cc1ccc(O)cc1)C(=O)N[C@@H](Cc1c[nH]c2ccccc12)C(=O)N[C@@H](Cc1ccc(O)cc1)C(=O)N[C@H](CCSC)C(N)=O [Peptide 90] (HELM PEPTIDE1{[ac].M.K.Y.W.Y.[dM].[am]}$$$$V2.0) |
| 11 to 100 | > 10000 | CCCC(=O)N[C@@H](CCSC)C(=O)N[C@@H](CCCCN)C(=O)N[C@@H](Cc1ccc(O)cc1)C(=O)N[C@@H](Cc1c[nH]c2ccccc12)C(=O)N[C@@H](Cc1ccc(O)cc1)C(=O)N[C@H](CCSC)C(N)=O [Peptide 91] (HELM PEPTIDE1{[CCCC(=O)[*:2]].M.K.Y.W.Y.[dM].[am]}$$$$V2.0) |
| < 10 | > 10000 | CSCC[C@H](NC(=O)[C@H](Cc1c[nH]cn1)NC(C)=O)C(=O)N[C@@H](CCCNC(=N)N)C(=O)N[C@@H](Cc1ccc(O)cc1)C(=O)N[C@@H](Cc1c[nH]c2ccccc12)C(=O)N[C@@H](Cc1ccc(O)cc1)C(=O)N[C@H](CCSC)C(N)=O [Peptide 92] (HELM PEPTIDE1{[ac].H.M.R.Y.W.Y.[dM].[am]}$$$$V2.0) |
| < 10 | 1000 to 10000 | CCCC(=O)N[C@@H](Cc1c[nH]cn1)C(=O)N[C@@H](CCSC)C(=O)N[C@@H](CCCNC(=N)N)C(=O)N[C@@H](Cc1ccc(O)cc1)C(=O)N[C@@H](Cc1c[nH]c2ccccc12)C(=O)N[C@@H](Cc1ccc(O)cc1)C(=O)N[C@H](CCSC)C(N)=O [Peptide 93] (HELM PEPTIDE1{[CCCC(=O)[*:2]].H.M.R.Y.W.Y.[dM].[am]}$$$$V2.0) |
| < 10 | 1000 to 10000 | CSCC[C@@H](NC(=O)[C@@H](NC(=O)[C@H](Cc1ccc(O)cc1)NC(=O)[C@H](Cc1ccc(O)cc1)NC(=O)[C@H](CCCNC(=N)N)NC(=O)[C@H](Cc1c[nH]c2ccccc12)NC(=O)[C@@H](N)CCCNC(=N)N)C(C)C)C(N)=O [Peptide 94] (HELM PEPTIDE1{R.W.R.Y.Y.V.[dM].[am]}$$$$V2.0) |
| 11 to 100 | 101 to 1000 | CSCC[C@@H](NC(=O)[C@@H](NC(=O)[C@H](Cc1ccc(O)cc1)NC(=O)[C@H](Cc1ccc(O)cc1)NC(=O)[C@H](CCCNC(=N)N)NC(=O)[C@H](Cc1c[nH]c2ccccc12)NC(C)=O)C(C)C)C(N)=O [Peptide 95] (HELM PEPTIDE1{[ac].W.R.Y.Y.V.[dM].[am]}$$$$V2.0) |
